Test results as given in patent publication US6858640B2, “Tricyclic indole compounds having affinity for serotonin receptor” (Shionogi & Co., Ltd., priority 2000, dated 2005).
Where two headings read alike, the source gives them in different places.

Key:
5HT1A = biological target: T1, 5HT1A (Rattus norvegicus, UniProt P19327); assay: radioligand binding to serotonin receptor, cell membrane sample, Ki by Cheng-Prusoff
T1 construct: prepared from brain of rats or HEK293 cells, which expressed the receptor; from tissue; host or cells: rat brain membranes
T1 sequence (P19327 1-422): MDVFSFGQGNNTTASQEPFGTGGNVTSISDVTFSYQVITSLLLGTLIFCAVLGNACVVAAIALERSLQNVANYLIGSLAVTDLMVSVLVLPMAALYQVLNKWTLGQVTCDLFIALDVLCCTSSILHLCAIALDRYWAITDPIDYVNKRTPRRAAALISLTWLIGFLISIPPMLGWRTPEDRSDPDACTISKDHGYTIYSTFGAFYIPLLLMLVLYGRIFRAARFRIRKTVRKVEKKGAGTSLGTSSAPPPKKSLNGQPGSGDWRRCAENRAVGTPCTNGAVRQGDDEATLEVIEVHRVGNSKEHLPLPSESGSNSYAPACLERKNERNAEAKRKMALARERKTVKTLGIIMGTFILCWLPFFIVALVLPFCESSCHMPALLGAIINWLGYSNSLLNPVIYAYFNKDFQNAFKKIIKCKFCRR
Protocol: (§1) A mixture of radioactive ligands and some cardinal numbers of test compounds was incubated with a sample of cell membrane, which was prepared from brain of rats or HEK293 cells, which expressed the receptor, under the following conditions. Then, the sample was filtered by suction on a Whatman GF/C. Radioactivity on the filter was encountered by the use of a liquid scintillation counter. 50% Inhibitory concentration values (IC50 values) of each selective binding were calculated for test compounds and the Ki value was obtained by applying an equation of Cheng-Prusoff [Biochem. Pharmacol. 22 (1973) 3099-3108] Ki=IC50/(1+[L]/Kd).

5HT7 = 5HT7 (Homo sapiens, UniProt P34969); assay: as above
Protocol: as §1

5HT6 = biological target: T2, 5HT6 (Homo sapiens, UniProt P50406); assay: as above
T2 construct: expressed in transfected cells; host or cells: HEK293
Protocol: as §1

[1] = rat hippocampus membranes, 1 nM [3H] 8-OH-DPAT, 25° C. 30 min, read-out: Ki value (nM) ±SE 5-HT1A
[2] = Human 5-HT7 (HEK293), 0.5 nM [3H] 5CT, 25° C. 120 min, read-out: Ki value (nM) ±SE 5-HT7

Chain of 5HT7 (P34969 whole entry, species assumed): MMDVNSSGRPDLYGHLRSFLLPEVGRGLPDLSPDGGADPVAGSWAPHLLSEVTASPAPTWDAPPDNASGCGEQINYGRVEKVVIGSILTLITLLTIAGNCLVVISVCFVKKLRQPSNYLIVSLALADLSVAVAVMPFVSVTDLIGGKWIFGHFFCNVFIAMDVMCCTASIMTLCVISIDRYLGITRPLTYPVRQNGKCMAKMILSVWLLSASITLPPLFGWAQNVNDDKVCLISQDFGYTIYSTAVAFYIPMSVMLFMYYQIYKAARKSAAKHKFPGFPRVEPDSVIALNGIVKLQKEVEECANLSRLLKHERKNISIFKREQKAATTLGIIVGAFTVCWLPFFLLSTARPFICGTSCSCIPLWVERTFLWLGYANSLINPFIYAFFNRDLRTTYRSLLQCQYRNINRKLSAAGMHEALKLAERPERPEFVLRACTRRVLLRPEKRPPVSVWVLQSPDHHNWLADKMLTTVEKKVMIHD
T2 sequence (P50406 whole entry, species assumed): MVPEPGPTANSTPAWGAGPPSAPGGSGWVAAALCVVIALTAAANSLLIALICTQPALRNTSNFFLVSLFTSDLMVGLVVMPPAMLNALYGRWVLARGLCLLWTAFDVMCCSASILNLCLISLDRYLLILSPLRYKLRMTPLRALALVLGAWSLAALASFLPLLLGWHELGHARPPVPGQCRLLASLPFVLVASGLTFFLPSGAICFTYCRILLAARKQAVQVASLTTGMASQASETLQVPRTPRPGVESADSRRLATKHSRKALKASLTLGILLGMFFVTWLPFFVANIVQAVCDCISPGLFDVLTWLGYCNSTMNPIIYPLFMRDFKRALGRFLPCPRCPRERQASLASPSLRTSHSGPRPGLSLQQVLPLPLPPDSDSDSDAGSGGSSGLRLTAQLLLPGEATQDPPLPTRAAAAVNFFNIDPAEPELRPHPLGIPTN

CCCNC1COc2cccc3[nH]cc(c23)C1 (stereo not drawn) [Compound 19-3]
melting point: 137 to 139 °C
Ki (5HT1A): 5.7 nM
Ki (5HT7): 46 nM

CNC1COc2c(Br)ccc3[nH]cc(c23)C1 (stereo not drawn) [Compound 19-15]
Ki (5HT1A): 7.7 nM
Ki (5HT7): 16 nM
Ki (5HT6): 4.6 nM

CN(C)C1COc2c(Br)ccc3[nH]cc(c23)C1 (stereo not drawn) [Compound 19-16]
melting point: 142 to 143 °C
Ki (5HT1A): 58 nM
Ki (5HT7): 86 nM
Ki (5HT6): 62 nM

CCN(CC)C1COc2cccc3c2c(cn3S(=O)(=O)c2ccccc2)C1 (stereo not drawn) [Compound 36-3]
melting point: 106 to 108 °C
Ki (5HT1A; [1]): 58 nM
Ki (5HT6): 4.2 nM

CN(C)C1COc2c(-c3ccccc3)ccc3[nH]cc(c23)C1 (stereo not drawn) [Compound 38, Dimethyl-(5-phenyl-2,7,8,9-tetrahydro-6-oxa-2-azabenzo[cd]azulen-8-yl)amine]
melting point: 168 to 170 °C
Ki (5HT1A; [1]): 83 nM
Ki (5HT7; [2]): 22 nM

COC(=O)/C=C/c1ccc2[nH]cc3c2c1OCC(N(C)C)C3 (stereo not drawn) [Compound 39, (E)-3-(8-Dimethylamino-2,7,8,9-tetrahydro-6-oxa-2-azabenzo[cd]azulen-5-yl)acrylic acid methyl ester]
Ki (5HT1A; [1]): 27 nM
Ki (5HT7; [2]): 73 nM

C=Cc1ccc2[nH]cc3c2c1OCC(N(C)C)C3 (stereo not drawn) [Compound 40, Dimethyl-(5-vinyl-2,7,8,9-tetrahydro-6-oxa-2-azabenzo[cd]azulen-8-yl)amine]
Ki (5HT1A; [1]): 15 nM
Ki (5HT7; [2]): 74 nM
Ki (5HT6): 32 nM
